Reference: ChEMBL document CHEMBL1201862, “PubChem BioAssay data set” (2004)
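Compound exposure: 48 hours, 5 concentrations, 96-well plates. GI50: concentration for 50% inhibition of growth.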 Active and inactive are the calls of the source. No stated cut-off is given here; in the data, active = GI50 up to about 1.1 µM and inactive = higher.

Experiments:
Experiment in all cases: growth of human tumour cells (NCI), 48 h
UO-31 = test system: UO-31
HCC 2998 = test system: HCC 2998
U-251 = test system: U-251
HT-29 = test system: HT-29
COLO 205 = test system: COLO 205
SNB-19 = test system: SNB-19
A549 = test system: A549
OVCAR-5 = test system: OVCAR-5
SK-MEL-5 = test system: SK-MEL-5
UACC-257 = test system: UACC-257
KM12 = test system: KM12
A498 = test system: A498
OVCAR-8 = test system: OVCAR-8
SW-620 = test system: SW-620
OVCAR-3 = test system: OVCAR-3
NCI-H226 = test system: NCI-H226
SR = test system: SR

Measured: GI50

O=C1Nc2cc(Cl)ccc2N=CC1NC(=O)C(c1ccccc1)c1ccccc1Cl (centres undefined)
inactive: UO-31 > 100 µM | HCC 2998 > 100 µM | U-251 > 100 µM | HT-29 > 100 µM | COLO 205 > 100 µM | SNB-19 > 100 µM | A549 > 100 µM | OVCAR-5 > 100 µM | SK-MEL-5 > 100 µM | UACC-257 > 100 µM | KM12 > 100 µM | A498 > 100 µM | OVCAR-8 > 100 µM | SW-620 > 100 µM | OVCAR-3 > 100 µM | NCI-H226 > 100 µM

CCOC(=O)C(=Cc1ccc(C(=O)OC)cc1)C(=O)OCC
inactive: HCC 2998 4.06 µM | U-251 1.66 µM | HT-29 3.21 µM | COLO 205 1.85 µM | SNB-19 2.39 µM | A549 3.37 µM | OVCAR-5 7.16 µM | SK-MEL-5 2.05 µM | KM12 2.92 µM | A498 13.2 µM | OVCAR-8 2.98 µM | SW-620 2.24 µM | OVCAR-3 3.41 µM | NCI-H226 2.08 µM

COc1ccc(-c2cc(Cc3cccs3)c(=O)[nH]n2)cc1
inactive: UO-31 82 µM | HCC 2998 > 100 µM | U-251 > 100 µM | HT-29 96.2 µM | COLO 205 > 100 µM | SNB-19 > 100 µM | A549 57 µM | OVCAR-5 > 100 µM | SK-MEL-5 19 µM | UACC-257 42.3 µM | KM12 > 100 µM | OVCAR-8 > 100 µM | SW-620 > 100 µM | OVCAR-3 29.6 µM | NCI-H226 > 100 µM

O=C(CO[N+](=O)[O-])OCC(=O)c1ccccc1
inactive: UO-31 > 100 µM | HCC 2998 > 100 µM | U-251 > 100 µM | HT-29 > 100 µM | COLO 205 > 100 µM | SNB-19 > 100 µM | A549 > 100 µM | OVCAR-5 > 100 µM | SR > 100 µM | UACC-257 > 100 µM | KM12 > 100 µM | OVCAR-8 > 100 µM | SW-620 > 100 µM | OVCAR-3 > 100 µM | NCI-H226 > 100 µM

CC(C)C(Nc1c2ccccc2[n+]([O-])c2ccccc12)C(=O)O (centres undefined)
inactive: UO-31 55.5 µM | HCC 2998 > 100 µM | U-251 > 100 µM | HT-29 > 100 µM | COLO 205 52.5 µM | SNB-19 > 100 µM | A549 > 100 µM | OVCAR-5 > 100 µM | SK-MEL-5 34.2 µM | UACC-257 66.2 µM | KM12 > 100 µM | A498 > 100 µM | OVCAR-8 53.2 µM | SW-620 > 100 µM | OVCAR-3 > 100 µM | NCI-H226 35.6 µM

Cn1c(=O)c2[nH]cnc2n(CC(N)=O)c1=O
inactive: UO-31 > 100 µM | U-251 > 100 µM | HT-29 > 100 µM | COLO 205 > 100 µM | SNB-19 > 100 µM | A549 > 100 µM | SK-MEL-5 > 100 µM | SR > 100 µM | KM12 > 100 µM | A498 > 100 µM | OVCAR-8 > 100 µM | SW-620 > 100 µM | OVCAR-3 > 100 µM

CCOc1ccc(NC(=O)/C(Cc2nc3ccccc3nc2O)=N\O)cc1
inactive: UO-31 > 100 µM | HCC 2998 > 100 µM | U-251 > 100 µM | COLO 205 > 100 µM | SNB-19 > 100 µM | A549 > 100 µM | OVCAR-5 > 100 µM | SK-MEL-5 > 100 µM | UACC-257 > 100 µM | KM12 > 100 µM | A498 > 100 µM | OVCAR-8 > 100 µM | SW-620 > 100 µM | OVCAR-3 > 100 µM

CC(C)C1CO[C@]2(C)CCC(=O)N12 (some centres undefined)
inactive: UO-31 > 100 µM | U-251 > 100 µM | HT-29 > 100 µM | COLO 205 > 100 µM | SNB-19 > 100 µM | A549 > 100 µM | SK-MEL-5 > 100 µM | SR > 100 µM | UACC-257 > 100 µM | KM12 > 100 µM | OVCAR-8 > 100 µM | SW-620 > 100 µM | OVCAR-3 > 100 µM | NCI-H226 > 100 µM

CCOC(=O)C1S/C(=N\c2ccc(Cl)cc2)N=C1C (centres undefined)
inactive: UO-31 19 µM | HCC 2998 17.7 µM | U-251 18.8 µM | HT-29 17.1 µM | COLO 205 17.5 µM | SNB-19 19.2 µM | A549 17.8 µM | OVCAR-5 22.1 µM | UACC-257 > 10 µM | KM12 18.2 µM | A498 18.3 µM | OVCAR-8 22.3 µM | SW-620 19.9 µM | OVCAR-3 23.6 µM | NCI-H226 25.6 µM

CN1CCN(CCNc2ccc(CO)c3sc4ccccc4c(=O)c23)CC1
inactive: UO-31 14.7 µM | HCC 2998 6.87 µM | U-251 3.11 µM | HT-29 4.15 µM | COLO 205 8.77 µM | SNB-19 21 µM | A549 10.5 µM | OVCAR-5 16.6 µM | SK-MEL-5 12.7 µM | SR 2.51 µM | UACC-257 15.2 µM | KM12 10.9 µM | OVCAR-8 9.38 µM | SW-620 4.18 µM | OVCAR-3 8.18 µM | NCI-H226 13.2 µM

Cc1cc(=O)oc2cc(OCc3nc4ccccc4c(=O)n3-c3ccccc3)ccc12
inactive: HCC 2998 > 100 µM | U-251 54.7 µM | HT-29 > 100 µM | COLO 205 > 100 µM | SNB-19 27.5 µM | A549 > 100 µM | OVCAR-5 > 100 µM | SK-MEL-5 > 100 µM | KM12 > 100 µM | A498 > 100 µM | OVCAR-8 45.1 µM | SW-620 > 100 µM | OVCAR-3 > 100 µM | NCI-H226 > 100 µM

Nn1c(S)nnc1NNC(=O)C(=O)Nc1cc(Cl)c(Cl)cc1Cl
inactive: UO-31 > 100 µM | HCC 2998 > 100 µM | U-251 > 100 µM | HT-29 > 100 µM | COLO 205 > 100 µM | SNB-19 > 100 µM | A549 > 100 µM | OVCAR-5 > 100 µM | SK-MEL-5 > 100 µM | UACC-257 > 100 µM | KM12 > 100 µM | A498 > 100 µM | OVCAR-8 > 100 µM | SW-620 > 100 µM | OVCAR-3 > 100 µM | NCI-H226 > 100 µM

CCN(CC)CC(C(=O)Nc1c(C)cccc1C)/C(C)=N\NC(=O)C[N+](C)(C)C (centres undefined)
inactive: UO-31 > 100 µM | HCC 2998 > 100 µM | U-251 > 100 µM | HT-29 > 100 µM | COLO 205 > 100 µM | SNB-19 > 100 µM | A549 > 100 µM | OVCAR-5 > 100 µM | SK-MEL-5 > 100 µM | SR > 100 µM | UACC-257 > 100 µM | KM12 > 100 µM | OVCAR-8 > 100 µM | SW-620 > 100 µM | OVCAR-3 > 100 µM | NCI-H226 > 100 µM
